Key:
rats [1] = conditions: rat, in vivo; cited from earlier work
rats [2] = conditions: rat, in vivo; cited from earlier work; remark: listed apart in the source
[3] = test system: glomerular epithelial cell; conditions: rat, in vivo; cited from earlier work
[4] = test system: angiotensin converting enzyme (ACE); conditions: 20, 25, and 30 days post-treatment; cited from earlier work
rabbits [5] = conditions: rabbit, in vivo; cited from earlier work
mice = conditions: single dose; cited from earlier work
[6] = test system: mitochondrial respiration; conditions: cited from earlier work
renal cortex = conditions: cited from earlier work
proximal renal tubule = conditions: rat, in vivo; cited from earlier work
rats [7] = conditions: rat, in vivo; cited from earlier work; remark: listed apart in the source
rats [8] = conditions: rat, in vivo; cited from earlier work; remark: listed apart in the source
rabbits [9] = conditions: rabbit, in vivo; cited from earlier work; remark: listed apart in the source
rabbits [10] = conditions: rabbit, in vivo; cited from earlier work; remark: listed apart in the source
[11] = Clinical pathology (clinical chemistry) of dosed rats; type: in vivo, male Sprague-Dawley rats; conditions: rats given the high dosage of diflunisal
Protocol: In both the ibuprofen and the diflunisal group, two patients complained of abdominal cramping.
1. Frequency—Prior to necropsy.
2. Number of animals—All surviving animals.
3. Bleeding Procedure—Blood was obtained by puncture of the orbital sinus while under 70% CO2/30% O2 anesthesia.
Collection of Blood Samples—Approximately 0.5 mL of blood was collected into EDTA tubes for evaluation of hematology parameters. Approximately 1 mL of blood was collected into serum separator tubes for clinical chemistry analysis. Approximately 200 uL of plasma was obtained and frozen at […] for test compound/metabolite estimation. An additional ˜2 mL of blood was collected into a 15 mL conical polypropylene vial to which ˜3 mL of Trizol was immediately added. The contents were immediately mixed with a vortex and by repeated inversion. The tubes were frozen in liquid nitrogen and stored at […]

rat hepatocytes = conditions: cited from earlier work
mouse = conditions: in vivo; cited from earlier work
rats [12] = conditions: rat, in vivo; cited from earlier work; remark: listed apart in the source
patients [13] = conditions: human, in vivo; cited from earlier work
human population = conditions: in vivo; cited from earlier work
rats [14] = conditions: rat, in vivo; cited from earlier work; remark: listed apart in the source
rats and mice = conditions: in vivo; cited from earlier work
patients [15] = conditions: 90 mg per month; cited from earlier work
patients [16] = conditions: four HIV-positive patients; cited from earlier work
rats [17] = conditions: rat, in vivo; cited from earlier work; remark: listed apart in the source
[18] = in vivo; cited from earlier work

CN(C)c1ncnc2c1ncn2[C@@H]1O[C@H](CO)[C@@H](N)[C@H]1O [PAN, Puromycin aminonucleoside]
urine protein and renal damage (rats [1]): proteinuria | serum albumin concentration (rats [2]): negatively affected | serum non-esterified fatty acids (rats [2]): increase | glomerular epithelial cell apoptosis [3]: induced

COc1cccc2c1C(=O)c1c(O)c3c(c(O)c1C2=O)C[C@@](O)(C(=O)CO)C[C@@H]3O[C@H]1C[C@H](N)[C@H](O)[C@H](C)O1 [adriamycin, Adriamycin]
serum ACE levels [4]: significantly elevated | nephrotoxicity (rabbits [5]): signs of nephrotoxicity at relatively low doses | renal signs (mice): combined glomerular albuminuria and immunoglublinuria

O=C(Cc1cccs1)N[C@@H]1C(=O)N2C(C(=O)[O-])=C(C[n+]3ccccc3)CS[C@H]12 [cephaloridine, Cephaloridine]
mitochondrial respiration and uptake of anionic succinate [6]: reduce | glutathione reductase (renal cortex): inhibited | reduced glutathione (GSH) in the renal cortex (renal cortex): depleted

N.N.[Cl][Pt][Cl] [cisplatin, Cisplatin (Pt (NH3)2(Cl)2)]
renal injury (proximal renal tubule): induced renal injury | food intake (rats [7]): decreased | urine osmolality (rats [7]): decreased | urine volume (rats [7]): increase | serum creatinine levels (rats [8]): elevations

CC1=C2C(=CO[C@H](C)[C@H]2C)C(O)=C(C(=O)O)C1=O [citrinin, Citrinin]
blood urea nitrogen and serum-creatinine levels (rabbits [9]): increased | clinical findings (rabbits [9]): azotaemia and metabolic acidosis | creatinine clearance (rabbits [9]): decreased | renal ultrastructure (rabbits [10]): renal alterations

O=C(O)c1cc(-c2ccc(F)cc2F)ccc1O [diflunisal, Diflunisal]
concentrations of creatinine [11]: increased | LDH leakage (rat hepatocytes; 500 μM, compared to the control sample): increase | intracellular ATP concentrations (rat hepatocytes): decreased

O=P1(NCCCl)OCCCN1CCCl (centres unmarked) [ifosfamide, Ifosfamide]
clearance rate of creatinine (mouse): decreased | serum creatinine and urea levels (mouse): elevated | body weight and hematocrit versus control rats (rats [12]): significantly lower | patients who developed nephrotoxicity (patients [13]): seven

[Li] [lithium, Lithium]
patients who proceeded to end-stage renal disease (human population): seven | patients with nephrogenic diabetes insipidus (NDI) (human population): ~90% | patients with nephrotic proteinuria (human population): Approximately one fourth | urine output (rats [14]): marked polyuria

NCCC(O)(P(=O)(O)O)P(=O)(O)O [pamidronate, Pamidronate]
body weight (rats and mice): significant weight loss | creatinine clearance (rats and mice): decrease | renal toxicity at the recommended dose (patients [15]): rare

Nc1ccc(S(=O)(=O)Nc2ncccn2)cc1 [sulfadiazine, Sulfadiazine]
patients who developed oliguria, abdominal pain, renal failure (patients [16]): All four

Carboplatin
renal damage compared with cisplatin (proximal renal tubule): less damage than cisplatin | renal injury (proximal renal tubule): induced renal injury | CGT excretion (rats [17]): increased approximately two-fold

gentamicin
gamma-glutamyl transpeptidase activity in urine [18]: increase

From patent publication US20070093969A1, “Molecular nephrotoxicology modeling” (priority 2002, published 2007)
